Consider 1 molecule from patent publication US20220175766A1, “COMPOSITIONS AND METHODS OF TREATMENT” (GB004, Inc., priority 2019, published 2022).

Read-outs that look alike come from different tables or passages of the source.

A word on the solubility: it is the dissolved amount per volume that the medium holds. High values mean a readily soluble substance, low ones a poorly soluble substance.

Data set [1] is described as follows: Compound 1 pH-solubility at 22° C. In kind it is physicochemical. The note with it: thermodynamic from solid. The text has this: The solubility of Compound 1 at various pH's was investigated.
The format of data set [2] is physicochemical. The method, then: Binary mixtures of Compound 1 HCl salt (prepared according to Example 2.1) and excipient were stored at 40° C. and 75% RH for 4 weeks and analysed at weekly intervals for appearance, moisture content (KF) and HPLC purity of Compound 1, with the excipients studied being microcrystalline cellulose, silicified microcrystalline cellulose, lactose, crospovidone, croscarmellose sodium, sodium starch glycolate, magnesium stearate, sodium stearyl fumarate, red iron oxide, blue #2, eudragit, polyvinylpyrrolidone, HPMC-AS, anhydrous citric acid and HPMC.

Data set [3] can be described thus: Dispersion of Compound 1⋅HCl in stirred water with or without poloxamer 188. The format is physicochemical. The note with it: 0.25 g in 50 mL water, in the presence of poloxamer 188 (0.25 g) vs without. As to the method:
Compound 1⋅HCl (0.25 g) was added to each of two stirred beakers containing water (50 mL), one also containing poloxamer 188 (0.25 g). The dispersion of Compound 1 throughout the beaker was higher in the presence of Poloxamer 188.

Regarding `CC(C)(C)OC(=O)N1CCN(Cc2ccn(Cc3ccc(Cl)cc3)c(=O)c2O)CC1.Cl` [Compound 1 HCl salt], the solubility was 600 µg/mL in data set [1] (citrate buffer, aqueous buffer, pH 3 (Citrate 25 mM, l = 0.1), pH 3.0, 22° C.); 1810 µg/mL in data set [1] (simulated gastric fluid, 0.1M HCl, pH 1.3, 22° C.); 550 µg/mL in data set [1] (Water (1 mg/ml load), pH 3.1, 22° C.); 2070 µg/mL in data set [1] (Water (5 mg/ml load), pH 2.2, 22° C.). Also, the Stability on storage entry in data set [2] (40° C. and 75% RH for 4 weeks) is given as “stable”. Moreover, the “Appearance of binary mixture” value in data set [2] (binary mixture with citric acid, 40° C. and 75% RH, after 1 week) is “liquefied”. Moreover, in data set [2] (binary mixture with citric acid, 40° C. and 75% RH, after 4 weeks), the “API purity by HPLC” value is given as 34.1%. In addition, the Total impurities in data set [2] (binary mixture with microcrystalline cellulose, 40° C. and 75% RH, after 4 weeks) stood at 0.51%; in data set [2] (binary mixture with silicified microcrystalline cellulose, 40° C. and 75% RH, after 4 weeks), 0.69%. Also, the “Dispersion of Compound 1 throughout the beaker” value in data set [3] was “higher”.
